Legend:
Assay type in all cases: biochemical
[1] = target: T1, TYK2 (Homo sapiens, UniProt P29597); assay: TYK2 inhibition (Table 4)
T1 construct: made in house; host or cells: SF9 insect cells (baculovirus)
T1 sequence (P29597 873-1187): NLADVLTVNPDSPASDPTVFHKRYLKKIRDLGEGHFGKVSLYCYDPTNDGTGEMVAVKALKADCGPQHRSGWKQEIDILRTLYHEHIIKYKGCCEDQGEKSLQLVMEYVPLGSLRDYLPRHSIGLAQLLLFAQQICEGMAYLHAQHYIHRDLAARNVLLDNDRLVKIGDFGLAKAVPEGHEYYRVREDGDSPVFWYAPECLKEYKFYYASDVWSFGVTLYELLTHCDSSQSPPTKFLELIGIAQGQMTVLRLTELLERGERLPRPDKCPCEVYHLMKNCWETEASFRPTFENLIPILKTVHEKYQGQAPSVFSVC

[2] = target: T2, JAK2 (Homo sapiens, UniProt O60674); assay: JAK2 inhibition (Table 4); details: read-out: JAK2 Ki
T2 construct: made in house; host or cells: SF9 insect cells (baculovirus)

[3] = target: T3, JAK3 (Homo sapiens, UniProt P52333); assay: JAK3 inhibition (Table 4); details: read-out: JAK3 Ki
T3 construct: made in house; host or cells: SF9 insect cells (baculovirus)

[4] = target: T4, JAK1 (Homo sapiens, UniProt P23458); assay: JAK1 inhibition (Table 4); details: read-out: JAK1 Ki
T4 construct: made in house; host or cells: SF9 insect cells (baculovirus)
T4 sequence (P23458 852-1154): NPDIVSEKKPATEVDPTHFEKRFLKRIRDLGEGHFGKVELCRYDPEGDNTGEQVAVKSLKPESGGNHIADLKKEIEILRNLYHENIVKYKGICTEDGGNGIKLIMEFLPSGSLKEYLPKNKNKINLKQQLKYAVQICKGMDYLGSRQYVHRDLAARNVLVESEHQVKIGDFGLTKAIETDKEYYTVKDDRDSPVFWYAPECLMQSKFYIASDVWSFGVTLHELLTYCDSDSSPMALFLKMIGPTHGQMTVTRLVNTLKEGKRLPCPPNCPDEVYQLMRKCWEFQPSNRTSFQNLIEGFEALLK

T2 sequence (O60674 812-1132): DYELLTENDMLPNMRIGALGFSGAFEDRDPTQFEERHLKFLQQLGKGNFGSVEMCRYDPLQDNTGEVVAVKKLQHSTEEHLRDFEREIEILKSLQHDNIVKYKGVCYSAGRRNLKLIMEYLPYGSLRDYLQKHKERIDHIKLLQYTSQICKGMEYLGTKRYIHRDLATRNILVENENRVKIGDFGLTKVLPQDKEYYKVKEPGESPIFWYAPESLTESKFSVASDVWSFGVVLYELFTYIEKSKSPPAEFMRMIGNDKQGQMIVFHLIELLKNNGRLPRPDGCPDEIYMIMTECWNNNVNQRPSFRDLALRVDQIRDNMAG
T3 sequence (P52333 783-1124): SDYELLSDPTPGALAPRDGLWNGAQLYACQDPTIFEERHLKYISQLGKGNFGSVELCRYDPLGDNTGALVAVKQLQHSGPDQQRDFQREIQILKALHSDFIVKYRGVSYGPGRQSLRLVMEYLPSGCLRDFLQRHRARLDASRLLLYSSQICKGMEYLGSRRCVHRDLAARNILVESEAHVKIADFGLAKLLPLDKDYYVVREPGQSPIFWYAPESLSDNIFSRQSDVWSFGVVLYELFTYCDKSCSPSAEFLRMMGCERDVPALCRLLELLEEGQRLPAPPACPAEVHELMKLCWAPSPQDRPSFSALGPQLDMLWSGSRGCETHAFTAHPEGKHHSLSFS

| Ki [1] [µM] | Ki [2] [µM] | Ki [3] [µM] | Ki [4] [µM] | Compound |
| --- | --- | --- | --- | --- |
| 0.638 | 0.184 | 1.41 | 0.0274 | Cc1nc2cnc3[nH]ccc3c2n1C1CCN(C(C)C)CC1 [Example 547, 1-(1-Isopropyl-piperidin-4-yl)-2-methyl-1,6-dihydro-1,3,5,6-tetraaza-as-indacene] |
| 0.00036 | 0.00081 | 0.00531 | 0.00012 | C[C@@H](O)c1nc2cnc3[nH]ccc3c2n1[C@H]1CC[C@H](CC#N)CC1 [Example 644, Trans {4-[2-((R)-1-Hydroxy-ethyl)-6H-1,2,3,5,6-tetraaza-as-indacen-1-yl]-cyclohexyl}-acetonitrile] |
| 0.0528 | 0.0167 | 0.0417 | 0.0103 | Cc1nc2cnc3[nH]ccc3c2n1[C@H]1CCC[C@](C)(O)C1 [Example 886, (1S,3S)-1-Methyl-3-(2-methyl-6H-1,3,5,6-tetraaza-as-indacen-1-yl)-cyclohexanol] |
| 0.859 | 0.441 | 0.609 | 0.0881 | Cc1nc2cnc3[nH]ccc3c2n1C1CCN(C(=O)NCC(F)(F)F)CC1 [Example 764, 4-(2-Methyl-6H-1,3,5,6-tetraaza-as-indacen-1-yl)-piperidine-1-carboxylic acid (2,2,2-trifluoro-ethyl)-amide] |
| 0.0627 | 0.015 | 0.202 | 0.00814 | C[C@]1(O)CC[C@H](n2nnc3cnc4[nH]ccc4c32)CC1 [Example 713, Trans-1-Methyl-4-(6H-1,2,3,5,6-pentaaza-as-indacen-1-yl)-cyclohexanol] |
| 0.0567 | 0.0214 | 0.00689 | 0.00172 | C[C@@H](O)c1nc2cnc3[nH]ccc3c2n1C1CCN(Cc2ccn[nH]2)CC1 [Example 896, (R)-1-{1-[1-(2H-Pyrazol-3-ylmethyl)-piperidin-4-yl]-1,6-dihydro-1,3,5,6-tetraaza-as-indacen-2-yl}-ethanol] |
| 0.0209 | 0.00169 | 0.0115 | 0.0009 | c1cc2c(ncc3ncn(C4CCN(Cc5cncs5)CC4)c32)[nH]1 [Example 104, 1-(1-Thiazol-5-ylmethyl-piperidin-4-yl)-1,6-dihydro-1,3,5,6-tetraaza-as-indacene] |
| 0.446 | 0.167 | 0.0773 | 0.0236 | CC(C)N1CC(c2nc3cnc4[nH]ccc4c3n2C2CCN(CCC#N)CC2)CC1=O (racemic) [Example 388, 3-{4-[2-(1-Isopropyl-5-oxo-pyrrolidin-3-yl)-6H-1,3,5,6-tetraaza-as-indacen-1-yl]-piperidin-1-yl}-propionitrile] |
| 0.994 | 0.437 | 0.445 | 0.0495 | CS(=O)(=O)NCCc1nc2cnc3[nH]ccc3c2n1[C@@H]1CCCOC1 [Example 862, (R)—N-{2-[1-(Tetrahydro-pyran-3-yl)-1,6-dihydro-1,3,5,6-tetraaza-as-indacen-2-yl]-ethyl}-methanesulfonamide] |
| 0.0249 | 0.00236 | 0.0234 | 0.002 | CC1CN(Cc2cncnc2)CCC1n1cnc2cnc3[nH]ccc3c21 (racemic) [Example 342, 1-(3-Methyl-1-pyrimidin-5-ylmethyl-piperidin-4-yl)-1,6-dihydro-1,3,5,6-tetraaza-as-indacene] |
| 0.207 | 0.0251 | 0.034 | 0.00359 | CC(O)c1nc2cnc3[nH]ccc3c2n1C1CCN(Cc2ccccc2)CC1 (racemic) [Example 157, Racemic 1-[1-(1-Benzyl-piperidin-4-yl)-1,6-dihydro-1,2,3,5,6-tetraaza-as-indacen-2-yl]-ethanol] |
| 1.5 | 0.167 | 3.17 | 0.22 | CC(C)(C#N)C(=O)N1CC[C@@H](n2cnc3cnc4[nH]ccc4c32)C1 [Example 186, 2,2-Dimethyl-3-oxo-3-[(R)-3-(6H-1,2,3,5,6-tetraaza-as-indacen-1-yl)-pyrrolidin-1-yl]-propionitrile] |
| 0.622 | 0.389 | 2.28 | 0.126 | O=C1CCC(n2cnc3cnc4[nH]ccc4c32)CN1 (racemic) [Example 130, 5-(6H-1,2,3,5,6-Tetraaza-as-indacen-1-yl)-piperidin-2-one] |
| 0.176 | 0.0428 | 0.00783 | 0.00337 | Cc1noc(CN2CCC(n3c(C(C)O)nc4cnc5[nH]ccc5c43)C(F)C2)n1 (centres unmarked) [Example 912, 1-{1-[3-Fluoro-1-(3-methyl-[1,2,4]oxadiazol-5-ylmethyl)-piperidin-4-yl]-1,6-dihydro-1,3,5,6-tetraaza-as-indacen-2-yl}-ethanol] |

Reference: US8461328B2, “Tricyclic heterocyclic compounds, compositions and methods of use thereof” (Genentech, Inc., priority 2010, dated 2013)
